According to patent US11999727B2 (Tango Therapeutics, Inc., priority 2020, dated 2024):

How the values were obtained:
[1] = test system: HAP1 MTAP-deleted cell line; test: Viability assay, MTAP-deleted cell line; type: cell-based; conditions: Homo sapiens, read-out: HAP1 MTAP deleted viability
Source text: Table 1 additionally indicates IC50 values in a viability assay for the MTAP-deleted cell line (column 10), indicating the effect of treatment with compound on cell survival.

[2] = target: T1, PRMT5 (Homo sapiens, UniProt O14744); test: PRMT5 biochemical IC50 assay with SAM as cofactor; conditions: PRMT5, SAM as cofactor; read-out: SAM IC50
T1 construct: purchased Viva (custom protein)
T1 sequence (O14744 whole entry): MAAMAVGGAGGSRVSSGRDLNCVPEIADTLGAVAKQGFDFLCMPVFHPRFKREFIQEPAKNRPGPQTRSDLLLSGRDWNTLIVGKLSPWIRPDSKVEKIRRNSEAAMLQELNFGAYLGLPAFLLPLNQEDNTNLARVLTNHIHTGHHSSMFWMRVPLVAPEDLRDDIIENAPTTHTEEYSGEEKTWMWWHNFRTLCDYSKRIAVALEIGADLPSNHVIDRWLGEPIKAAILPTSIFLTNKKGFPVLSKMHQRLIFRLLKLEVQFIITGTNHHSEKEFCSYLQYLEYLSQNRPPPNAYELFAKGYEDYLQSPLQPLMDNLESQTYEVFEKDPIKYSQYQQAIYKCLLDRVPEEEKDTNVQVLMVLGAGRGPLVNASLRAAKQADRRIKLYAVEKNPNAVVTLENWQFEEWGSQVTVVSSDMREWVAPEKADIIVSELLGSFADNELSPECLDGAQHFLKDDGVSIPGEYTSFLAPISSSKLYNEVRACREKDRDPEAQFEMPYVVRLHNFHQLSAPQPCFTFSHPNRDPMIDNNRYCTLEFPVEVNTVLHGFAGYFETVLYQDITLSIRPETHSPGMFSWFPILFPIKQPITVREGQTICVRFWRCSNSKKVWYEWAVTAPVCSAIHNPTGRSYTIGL
T1 sequence (Q9BQA1 whole entry partner): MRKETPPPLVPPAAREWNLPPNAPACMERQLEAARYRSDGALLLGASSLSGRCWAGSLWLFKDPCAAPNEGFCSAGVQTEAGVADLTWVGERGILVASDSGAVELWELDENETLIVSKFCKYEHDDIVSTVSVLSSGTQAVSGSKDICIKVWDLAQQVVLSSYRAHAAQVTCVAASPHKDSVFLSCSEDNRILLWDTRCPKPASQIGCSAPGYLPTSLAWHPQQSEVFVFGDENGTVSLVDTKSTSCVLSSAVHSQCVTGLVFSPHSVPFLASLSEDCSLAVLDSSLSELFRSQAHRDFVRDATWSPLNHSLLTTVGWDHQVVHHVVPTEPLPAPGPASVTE

[3] = target: T1, PRMT5; test: PRMT5 biochemical IC50 assay with MTA as cofactor; conditions: PRMT5, MTA as cofactor; read-out: MTA IC50
[4] = target: T1, PRMT5; test: PRMT5 biochemical IC50 assay with no cofactor; conditions: PRMT5, no cofactor
Source text: Table 1 indicates IC50 values (μM) against PRMT5 for exemplary compounds in the presence of SAM as cofactor, with no cofactor, and with MTA as cofactor, respectively (columns 4-6). […] Ki values can be calculated from the IC50 values as described in the Examples section. As detailed in the Examples section, for the assay performed in the presence of SAM, IC50=Ki×1.5 (Ki=IC50/1.5).

[5] = test system: HAP1 MTAP-intact cell line; test: SDMA in-cell western assay, HAP1 MTAP-intact; type: cell-based; conditions: Homo sapiens, HAP1, SDMA in-cell western, HAP1 MTAP-intact; read-out: MTAP HAP1 intact IC50
How it was run: (§1)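 Isogenic HAP1 pair: the MTAP-intact line expresses endogenous MTAP, and the deleted line is MTAP-null. Symmetric dimethylarginine was detected by in-cell western and IC50 values derived for each line.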

[6] = test system: HAP1 MTAP-deleted cell line; test: SDMA in-cell western assay, HAP1 MTAP-deleted; type: cell-based; conditions: for IC50: Homo sapiens, HAP1, SDMA in-cell western, HAP1 MTAP-deleted; for MTAP intact/deleted ratio: SDMA in-cell western
How it was run: as §1

[7] = HAP1, viability, HAP1 MTAP-deleted cell line
[8] = read-out: No Cofactor/ rel IC50
[9] = read-out: HAP 1 MTAP deleted IC50
[10] = IC50 ratio HAP1 MTAP-intact / HAP1 MTAP-deleted
[11] = HAP1, viability assay, MTAP-deleted cell line
[12] = read-out: HAP1 MTAP deleted IC50
[13] = IC50 ratio HAP1 MTAP-intact vs HAP1 MTAP-deleted
[14] = HAP1, viability assay, HAP1 MTAP-deleted

| SMILES | IC50 [2] [nM] | IC50 [3] [nM] | IC50 [4, 8] [nM] | IC50 [5] [nM] | IC50 [6, 9] [nM] | IC50 ([4]; read-out: No Cofactor/rel IC50) [nM] | IC50 [6, 12] [nM] | IC50 [1, 7] [nM] | MTAP intact/deleted ratio [6, 10] | IC50 [1, 11] [nM] | MTAP intact/deleted ratio [6, 13] | IC50 [1, 14] [nM] |
| --- | --- | --- | --- | --- | --- | --- | --- | --- | --- | --- | --- | --- |
| Cc1cncc(NC(=O)C(=O)N2C[C@@H](C)CC[C@@H]2c2cccs2)c1 (racemic) [Compound 60, rac-2-((2R,5S)-5-methyl-2-(thiophen-2-yl)piperidin-1-yl)-N-(5-methylpyridin-3-yl)-2-oxoacetamide] | > 500 | 50 to 500 | > 500 | > 1000 | > 1000 |  |  |  | C (an IC50 ratio of less than 3 fold) | > 10000 |  |  |
| C[C@@H]1CC[C@@H](c2ccc(O)nc2)N(C(=O)C(=O)Nc2cncc(C(N)=O)c2)C1 (single isomer, unassigned) [Compound 351] | > 500 | > 500 |  | > 1000 |  | > 500 | > 1000 |  | C (an IC50 ratio of less than 3 fold) | > 10000 |  |  |
| CCc1cc(NC(=O)C(=O)N2C[C@@H](C)CC[C@@H]2c2ccc3sc([C@@H]4CCN(C)C(=O)C4)nc3c2)cnc1N [Compound 1256, N-(6-amino-5-ethyl-3-pyridyl)-2-[(2R,5S)-5-methyl-2-[2-(1-methyl-2-oxo-4-piperidyl)-1,3-benzothiazol-5-yl]-1-piperidyl]-2-oxo-acetamide] | 50 to 500 | < 50 | < 50 | < 100 | < 100 |  |  | < 1000 | A (an IC50 ratio greater than or equal to 10 fold) |  |  |  |
| Cc1cc(NC(=O)C(=O)N2CC3(CCC2c2ccc(F)cc2)CC3)cnc1N (centres unmarked) [Compound 753] | 50 to 500 | < 50 |  | > 1000 |  | 50 to 500 | 100 to 1000 |  | A (an IC50 ratio greater than or equal to 10 fold) |  |  | 1000 to 10000 |
| C[C@@H]1CC[C@@H](C2CCCC2)N(C(=O)C(=O)Nc2cncc(C(N)=O)c2)C1 (racemic) [Compound 172, 5-(2-(2-cyclopentyl-5-methylpiperidin-1-yl)-2-oxoacetamido)nicotinamide] | 50 to 500 | < 50 | 50 to 500 | > 1000 | 100 to 1000 |  |  |  | A (an IC50 ratio greater than or equal to 10 fold) | > 10000 |  |  |
| CCc1cc(NC(=O)C(=O)N2C[C@@H](C)CC[C@@H]2c2ccc3sc(CCN(C)C4COC4)nc3c2)cnc1N [Compound 1195, N-(6-amino-5-ethylpyridin-3-yl)-2-((2R,5S)-5-methyl-2-(2-(2-(methyl(oxetan-3-yl)amino)ethyl)benzo[d]thiazol-5-yl)piperidin-1-yl)-2-oxoacetamide] | 50 to 500 | < 50 |  | < 100 |  | < 50 | < 100 |  |  | < 1000 | A (an IC50 ratio greater than or equal to 10 fold) |  |
| Cn1nccc1C1CCCCN1C(=O)C(=O)Nc1cncc(C(N)=O)c1 (centres unmarked) [Compound 26, 5-[[2-[2-(2-methylpyrazol-3-yl)-1-piperidyl]-2-oxo-acetyl]amino]pyridine-3-carboxamide] | 50 to 500 | 50 to 500 | > 500 | > 1000 | 100 to 1000 |  |  |  | A (an IC50 ratio greater than or equal to 10 fold) | > 10000 |  |  |
| CNC(=O)c1ccc([C@@H]2CC[C@@H](C)CN2C(=O)C(=O)Nc2cncc(C(N)=O)c2)s1 (single isomer, unassigned) [Compound 829] | 50 to 500 | < 50 |  | > 1000 |  | < 50 | < 100 |  | A (an IC50 ratio greater than or equal to 10 fold) |  |  | 1000 to 10000 |

More lines, main results first:

| IC50 [2] [nM] | IC50 [3] [nM] | IC50 [4, 8] [nM] | IC50 [5] [nM] | IC50 [6, 9] [nM] | IC50 ([4]; read-out: No Cofactor/rel IC50) [nM] | IC50 [6, 12] [nM] | SMILES | IC50 [1, 7] [nM] | MTAP intact/deleted ratio [6, 10] | IC50 [1, 11] [nM] | MTAP intact/deleted ratio [6, 13] | IC50 [1, 14] [nM] |
| --- | --- | --- | --- | --- | --- | --- | --- | --- | --- | --- | --- | --- |
| < 50 | < 50 | < 50 | < 100 | < 100 |  |  | CCc1cc(NC(=O)C(=O)N2C[C@@H](C)CC[C@@H]2c2ccc3sc([C@@H]4[C@@H]5CN(C)C[C@@H]54)nc3c2)cnc1N [Compound 1366, N-(6-amino-5-ethylpyridin-3-yl)-2-((2R,5S)-5-methyl-2-(2-((1R,5S,6s)-3-methyl-3-azabicyclo[3.1.0]hexan-6-yl)benzo[d]thiazol-5-yl)piperidin-1-yl)-2-oxoacetamide] | < 1000 | A (an IC50 ratio greater than or equal to 10 fold) |  |  |  |
| 50 to 500 | < 50 |  | < 100 | < 100 | 50 to 500 |  | Cc1cc(NC(=O)C(=O)N2C[C@@H](C)CC[C@@H]2c2ccc(-c3cncs3)cc2)cnc1N (single isomer, unassigned) [Compound 887, N-(6-amino-5-methylpyridin-3-yl)-2-(5-methyl-2-(4-(thiazol-5-yl)phenyl)piperidin-1-yl)-2-oxoacetamide] |  | B (an IC50 ratio greater than or equal to 3 fold but lower than 10 fold) | < 1000 |  |  |
| 50 to 500 | < 50 |  | 100 to 1000 |  | < 50 | < 100 | CCc1cc(NC(=O)C(=O)N2C[C@@H](C)CC[C@@H]2c2ccc3sc(C4CCN(C)C(=O)C4)nc3c2)cnc1N (mixture of isomers) [Compound 1110, N-(6-amino-5-ethylpyridin-3-yl)-2-((2R,5S)-5-methyl-2-(2-(1-methyl-2-oxopiperidin-4-yl)benzo[d]thiazol-5-yl)piperidin-1-yl)-2-oxoacetamide] |  |  | < 1000 | A (an IC50 ratio greater than or equal to 10 fold) |  |
| 50 to 500 | 50 to 500 |  | > 1000 |  | > 500 | 100 to 1000 | NC(=O)c1cncc(NC(=O)C(=O)N2C[C@@H](CC(F)(F)F)CC[C@@H]2c2ccccc2)c1 (racemic) [Compound 342, 5-[[2-Oxo-2-[(2S,5S)-2-phenyl-5-(2,2,2-trifluoroethyl)-1-piperidyl]acetyl]amino]pyridine-3-carboxamide] |  | A (an IC50 ratio greater than or equal to 10 fold) | > 10000 |  |  |
| 50 to 500 | < 50 |  | > 1000 |  | 50 to 500 | 100 to 1000 | C[C@@H]1CC[C@@H](c2ccccc2)N(C(=O)C(=O)Nc2cncc(C(N)=O)c2)[C@H]1C (racemic) [Compound 181, rac-5-[[2-[(2S,3R,6S)-2,3-dimethyl-6-phenyl-1-piperidyl]-2-oxo-acetyl]amino]pyridine-3-carboxamide] |  | A (an IC50 ratio greater than or equal to 10 fold) | 1000 to 10000 |  |  |
| 50 to 500 | 50 to 500 | 50 to 500 | > 1000 | < 100 |  |  | CCc1cc(NC(=O)C(=O)N2C[C@@H](C)CC[C@@H]2c2ccc(N3CCOC4(CN(C)C4)C3)cc2)cnc1N (racemic) [Compound 1329, rac-N-(6-Amino-5-ethyl-3-pyridyl)-2-[(2R,5S)-5-methyl-2-[4-(2-methyl-5-oxa-2,8-diazaspiro[3.5]nonan-8-yl)phenyl]-1-piperidyl]-2-oxo-acetamide] | < 1000 |  |  |  |  |
| 50 to 500 | 50 to 500 |  | > 1000 |  | 50 to 500 | 100 to 1000 | NC(=O)c1cncc(NC(=O)C(=O)N2CC3(CCC2c2ccc(F)cc2)CC3)c1 (centres unmarked) [Compound 776, 5-(2-(6-(4-fluorophenyl)-5-azaspiro[2.5]octan-5-yl)-2-oxoacetamido)nicotinamide] |  | A (an IC50 ratio greater than or equal to 10 fold) |  |  | 1000 to 10000 |
| 50 to 500 | < 50 |  | 100 to 1000 | < 100 | < 50 |  | CCc1cc(NC(=O)C(=O)N2C[C@@H](C)CC[C@@H]2c2ccc(NS(C)(=O)=O)cc2)cnc1N (single isomer, unassigned) [Compound 902] |  | A (an IC50 ratio greater than or equal to 10 fold) | < 1000 |  |  |
| 50 to 500 | < 50 |  | 100 to 1000 |  | < 50 | < 100 | CCc1cc(NC(=O)C(=O)N2C[C@@H](C)CC[C@@H]2c2ccc(N3CC[C@@H]4CCN(C)C[C@@H]4C3)cc2)cnc1N (single isomer, unassigned) [Compound 1144] |  |  | < 1000 | A (an IC50 ratio greater than or equal to 10 fold) |  |
| 50 to 500 | 50 to 500 |  | > 1000 | > 1000 | 50 to 500 |  | Cc1cc(NC(=O)C(=O)N2C[C@H](C)CC[C@H]2c2ccc(NS(C)(=O)=O)nc2)cnc1N (single isomer, unassigned) [Compound 980] |  | B (an IC50 ratio greater than or equal to 3 fold but lower than 10 fold) | > 10000 |  |  |
